Results on 27 molecules are retold here after US20160332971A1, “ARYLQUINOLINE, ARYLQUINOLONE AND ARYLTHIOQUINOLONE DERIVATIVES AND USE THEREOF TO TREAT CANCER” (UNIVERSITY OF KENTUCKY RESEARCH FOUNDATION, priority 2015, published 2016).

The test system of series [1] is Par-4 secretion from mouse fibroblasts. The series can be described thus: Par-4 secretion into conditioned medium, quantitative Western blot normalised to CollA1. Format: cell-based. To be noted: for Relative Levels of Par-4 Secretion by Arylquins Administered at 500 nM / fold induction at 0.5 µM: 24 h; for Relative Levels of Par-4 Secretion by Arylquins Administered at 500 nM: mouse fibroblasts, CM; for Par-4 secretory activity (in words): SAR discussion; for fold induction at 0.5 µM: Mus musculus, Fibroblast, read-out: Ratio of Par-4 Secretion by Arylquin 1 Relative to Vehicle. The method, then:
Calibration curve developed using fixed amounts (0.05-5 ng) of recombinant TRX-Par-4. […] Therefore the concentration was 0.82 ng/40 μL or 540 pM, In the same fashion, calculation for Par-4 concentration using vehicle (v) was 280 pM.
Biological activity of 3-Arylquinolines. […] After 24 h exposure, the CM and lysates were subjected to quantitative Western blot analysis for Par-4 and collagen (CollA1).
Co-immunoprecipitation and Western blot analysis. Protein extracted from cell lysates was filtered, pre-cleared with 25 μL (bed volume) of protein G-Sepharose beads and immunoprecipitated with 1 μg of respective antibodies. The eluted proteins were resolved by SDS-PAGE, and subjected to Western blot analysis as described previously. Bensch, et al. Nature 1968, 218(5147):1176-1177.
Statistical analyses. All experiments were performed in triplicate to verify the reproducibility of the findings. […] Statistical analyses were carried out with Statistical Analysis System software (SAS Institute, Cary, N.C.) and P values were calculated using the Student t test.
A general note: A western blot detects proteins with antibodies after separation by electrophoresis.

Read-outs that look alike come from different tables or passages of the source.

For the molecule “3-(2,3-Difluorophenyl)-N^7,N^7-dimethylquinoline-2,7-diamine [Arylquin 1i]”, in series [1] (Table 1), the “Relative Levels of Par-4 Secretion by Arylquins Administered at 500 nM” value (“Relative Levels of Par-4 Secretion” below) is reported as 88.4 ± 1.3. The “Par-4 secretory activity (in words)” value in series [1] (500 nM) is “comparable to 1a, 1b and 1h”.
“3-(2,5-Difluorophenyl)-N^7,N^7-dimethylquinoline-2,7-diamine [Arylquin 1l]”: the “Relative Levels of Par-4 Secretion” value in series [1] (Table 1) is 64.9 ± 13.1.
Turning to `CN(C)c1ccc2cc(-c3ccccc3F)c(N)nc2c1` [Arylquin 1a], in series [1] (500 nM, vs vehicle alone), the “increase in Par-4 concentrations in the CM from basal levels” value was “two-fold increase”. Besides, the “Par-4 concentration in the CM” value in series [1] (500 nM, calibration with recombinant TRX-Par-4 (FIG. 3), vehicle 280 pM) was 540 pM. The “Par-4 secretory activity (in words)” value in series [1] (500 nM) is “superior in potency”.
By melting point is commonly meant the temperature, or range, at which the solid turns liquid. `CN(C)c1ccc2cc(-c3ccccc3Cl)c(N)nc2c1` [Arylquin 1b, 3-(2-Chlorophenyl)-N^7,N^7-dimethylquinoline-2,7-diamine] yielded a melting point of 147 to 148 °C. In addition, in series [1] (500 nM), the “Par-4 secretory activity (in words)” value was “comparable in activity”.
`CN(C)c1ccc2cc(-c3ccccc3Br)c(N)nc2c1` [Arylquin 1c, 3-(2-Bromophenyl)-N^7,N^7-dimethylquinoline-2,7-diamine] showed a melting point of 159 to 160 °C. Moreover, the “Relative Levels of Par-4 Secretion” value in series [1] (Table 1) came out at 33.6 ± 14.8. For the same molecule, in series [1] (500 nM), the “Par-4 secretory activity (in words)” value is on record as “diminished activity”.
In the case of `CN(C)c1ccc2cc(-c3cccc(Cl)c3)c(N)nc2c1` [Arylquin 1e, 3-(3-Chlorophenyl)-N^7,N^7-dimethylquinoline-2,7-diamine], the melting point fell in the range of 144 to 145 °C. Further, in series [1] (Table 1), the “Relative Levels of Par-4 Secretion” value was determined as 78.3 ± 15.3. Besides, the fold induction at 0.5 µM in series [1] (500 nM, Table 1) came to 2.6. Also, the “Par-4 secretory activity (in words)” value in series [1] (500 nM) was “no improvement”.
For the molecule `CN(C)c1ccc2cc(-c3ccc(Cl)cc3)c(N)nc2c1` [Arylquin 1g, 3-(4-Chlorophenyl)-N^7,N^7-dimethylquinoline-2,7-diamine], the melting point was in the range of 169 to 170 °C. The “Par-4 secretory activity (in words)” value in series [1] (500 nM) is given as “no improvement”.
In the case of `CN(C)c1ccc2cc(-c3cccc(F)c3F)c(N)nc2c1` [Arylquin 1h, 3-(2,3-Difluorophenyl)-N^7,N^7-dimethylquinoline-2,7-diamine], the “Relative Levels of Par-4 Secretion” value in series [1] (Table 1) is listed as 93.2 ± 10.6. Also, the fold induction at 0.5 µM in series [1] (500 nM, Table 1) was found to be 3.1. Moreover, in series [1] (500 nM), the “Par-4 secretory activity (in words)” value was “equipotent to the original arylquinoline 1a”.
The molecule `CN(C)c1ccc2cc(-c3ccc(F)cc3F)c(N)nc2c1` [Arylquin 1j, 3-(2,4-Difluorophenyl)-N^7,N^7-dimethylquinoline-2,7-diamine] returned a melting point of 174 to 175 °C. Further, in series [1] (Table 1), the “Relative Levels of Par-4 Secretion” value is reported as 80.8 ± 3.0. Moreover, the fold induction at 0.5 µM in series [1] (500 nM, Table 1) turned out to be 2.7. For the same molecule, the “Par-4 secretory activity (in words)” value in series [1] (500 nM) was “equipotent to the original arylquinoline 1a”.
Take `CN(C)c1ccc2cc(-c3cc(F)ccc3F)c(N)nc2c1` [Arylquin 1k, 3-(2,5-Difluorophenyl)-N^7,N^7-dimethylquinoline-2,7-diamine]: the “Relative Levels of Par-4 Secretion” value in series [1] (Table 1) was found to be 86.2 ± 7.5. Moreover, the fold induction at 0.5 µM in series [1] (500 nM, Table 1) is 2.9. Moreover, the “Par-4 secretory activity (in words)” value in series [1] (500 nM) is “equipotent to the original arylquinoline 1a”.
Regarding `CN(C)c1ccc2cc(-c3c(F)cccc3F)c(N)nc2c1` [Arylquin 1m, 3-(2,6-Difluorophenyl)-N^7,N^7-dimethylquinoline-2,7-diamine], the melting point lay within 148 to 150 °C. The “Relative Levels of Par-4 Secretion” value in series [1] (Table 1) was 44.6 ± 4.6. Moreover, the fold induction at 0.5 µM in series [1] (500 nM, Table 1) amounted to 1.5. The “Par-4 secretory activity (in words)” value in series [1] (500 nM) is listed as “did not lead to improved activity”.
The like results for `CN(C)c1ccc2cc(-c3ccc(F)c(F)c3)c(N)nc2c1` [Arylquin 1n, 3-(3,4-Difluorophenyl)-N^7,N^7-dimethylquinoline-2,7-diamine] were, in that order, 163 to 164 °C, 58.4 ± 14.1, 2 and “diminished activity relative to 1a”.
With `CN(C)c1ccc2cc(-c3cc(F)cc(F)c3)c(N)nc2c1` [Arylquin 1o, 3-(3,5-Difluorophenyl)-N^7,N^7-dimethylquinoline-2,7-diamine], the melting point is 160 to 162 °C. The “Relative Levels of Par-4 Secretion” value in series [1] (Table 1) was determined as 47.4 ± 16.8. In addition, in series [1] (500 nM), the “Par-4 secretory activity (in words)” value is on record as “diminished activity relative to 1a”.
With `CN(C)c1ccc2cc3c(nc(N)c4ccccc43)nc2c1` [Arylquin 6, N^9,N^9-Dimethyldibenzo[b,f][1,8]naphthyridine-5,9-diamine], the melting point was over 250 °C. Moreover, in series [1] (500 nM), the “Par-4 secretory activity (in words)” value is “biologically inactive”.
Taken in the same sequence, the figures for `CN(C)c1ccc2cc3c(nc2c1)[nH]c(=O)c1ccccc13` [Arylquin 7, 9-(Dimethylamino)dibenzo[b,f][1,8]naphthyridin-5(6H)-one] were over 250 °C and “biologically inactive”.
For the molecule `CCOC(=O)c1cn2c(n1)c(-c1ccccc1F)cc1ccc(N(C)C)cc12` [Arylquin 8b], in series [1] (500 nM), the “Par-4 secretory activity (in words)” value is on record as “little Par-4 secretory activity”.
With `CN(C)c1ccc2cc(-c3ccccc3F)c(=O)[nH]c2c1` [Arylquin 9], the “Ratio of Par-4 Secretion by Arylquin 1 Relative to Vehicle” value in series [1] (500 nM, Table 2) came out at 1.1. Besides, in series [1] (Table 2), the “Relative Levels of Par-4 Secretion” value was found to be 33.2 ± 0.9. Moreover, in series [1] (500 nM), the “Par-4 secretory activity (in words)” value is listed as “diminished Par-4 secretory activity relative to arylquinoline 1a”.
In the case of `CSc1nc2cc(N(C)C)ccc2cc1-c1ccccc1F` [Arylquin 11, 3-(2-Fluorophenyl)-N,N-dimethyl-2-(methylthio)quinolin-7-amine], the “Relative Levels of Par-4 Secretion” value in series [1] (Table 2) stood at 75.4 ± 7.0. In series [1] (500 nM, Table 2), the fold induction at 0.5 µM is 2.5. In addition, in series [1] (500 nM), the “Par-4 secretory activity (in words)” value is listed as “diminished activity to varying degrees”.
`CN(C)c1ccc2cc(-c3ccccc3F)c(Cl)nc2c1` [Arylquin 12, 2-Chloro-3-(2-fluorophenyl)-N,N-dimethylquinolin-7-amine]: the “Relative Levels of Par-4 Secretion” value in series [1] (Table 2) is listed as 104.5 ± 26.9. Further, the fold induction at 0.5 µM in series [1] (500 nM, Table 2) came out at 3.5. Also, the “Par-4 secretory activity (in words)” value in series [1] (500 nM) is listed as “activity comparable to but not exceeding that of arylquinoline 1a”.
The like results for `CN1CCN(c2nc3cc(N(C)C)ccc3cc2-c2ccccc2F)CC1` [Arylquin 13b, 3-(2-Fluorophenyl)-N,N-dimethyl-2-(4-methylpiperazin-1-yl)quinolin-7-amine] were, in that order, 65.6 ± 3.6, 2.2 and “diminished activity to varying degrees”.
In turn, `Nc1nc2cccc(F)c2cc1-c1ccccc1F` [Arylquin 15b, 5-Fluoro-3-(2-fluorophenyl)quinolin-2-amine] displayed a melting point of 142 to 143 °C. Also, the “Relative Levels of Par-4 Secretion” value in series [1] (Table 2) was 83.4. Moreover, the fold induction at 0.5 µM in series [1] (500 nM, Table 2) was found to be 2.8. Besides, the “Par-4 secretory activity (in words)” value in series [1] (500 nM) is on record as “equipotent to 15a”.
Taken in the same sequence, the figures for `Nc1nc2cccc(Cl)c2cc1-c1ccccc1F` [Arylquin 15c, 5-Chloro-3-(2-fluorophenyl)quinolin-2-amine] were 194 to 196 °C, 63.2 ± 20.5, 2.1 and “lower Par-4 secretory activity”.
Taken in the same sequence, the figures for `Nc1nc2cccc(Br)c2cc1-c1ccccc1F` [Arylquin 15d, 5-Bromo-3-(2-fluorophenyl)quinolin-2-amine] were 209 to 210 °C, 44.6, 1.5 and “lower Par-4 secretory activity”.
The molecule `Nc1nc2ccc(Cl)cc2cc1-c1ccccc1F` [Arylquin 15e, 6-Chloro-3-(2-fluorophenyl)quinolin-2-amine] gave a melting point of 138 to 139 °C. Also, in series [1] (Table 2), the “Relative Levels of Par-4 Secretion” value is reported as 81.9 ± 11.2. Further, the fold induction at 0.5 µM in series [1] (500 nM, Table 2) turned out to be 2.8. Also, in series [1] (500 nM), the “Par-4 secretory activity (in words)” value is listed as “equipotent to 15a”.
`Nc1nc2cc(Cl)ccc2cc1-c1ccccc1F` [Arylquin 15f, 7-Chloro-3-(2-fluorophenyl)quinolin-2-amine] came in with a melting point of 178 to 180 °C. In series [1] (Table 2), the “Relative Levels of Par-4 Secretion” value is given as under 50. Further, the “Par-4 secretory activity (in words)” value in series [1] (500 nM) was “reduced activity”.
With `COc1ccc2cc(-c3ccccc3F)c(N)nc2c1` [Arylquin 15g, 3-(2-Fluorophenyl)-7-methoxyquinolin-2-amine], the melting point is 114 to 116 °C. In series [1] (Table 2), the “Relative Levels of Par-4 Secretion” value is recorded as under 50. For the same molecule, the “Par-4 secretory activity (in words)” value in series [1] (500 nM) is given as “reduced activity”.
On to `Nc1nc2cc(C(=O)O)ccc2cc1-c1ccccc1F` [Arylquin 15h, 2-Amino-3-(2-fluorophenyl)quinoline-7-carboxylic add], for which the “Relative Levels of Par-4 Secretion” value in series [1] (Table 2) is recorded as under 50. For the same molecule, the “Par-4 secretory activity (in words)” value in series [1] (500 nM) is “reduced activity”.
